No end group written: not given here.
Tested on: TCRβ clonotypes in CD8+ T cell populations
Assay: TCRβ CDR3 sequencing of neoantigen-specific CD8+ T cells, pre- and post-vaccine
Design: species or system human
Experimental: Short-term ex-vivo expanded neoantigen-specific T cells were purified to 97-99% purity by cell sorting in a Sony SY3200 BSC (Sony Biotechnology) fitted with a 100 um nozzle, at 30 psi, using 561 nm (585/40) and 642 nm (665/30) lasers and cell pellets were prepared. DNA isolation and TCRβ sequencing was performed by Adaptive Biotechnologies and The Genome Institute at Washington University. Sequencing was performed at either survey (for neoantigen-specific TCRβ reference libraries) or deep (for pre- and post-vaccine CD8+ T cell populations) level (Robins, H., et al., J. Immunol. Methods, 375, 14-19, 2012; Carlson, C. S., et al., Nat. Commun., 4, 2680, 2013). TCRβ V-, D-, J-genes of each CDR3 regions were defined using IMGT (ImMunoGeneTics)/Junctional algorithms and data uploaded into the ImmunoSeq Analyzer (Adaptive Biotechnologies) for analysis. Complete amino acid identity between the reference library and pre- and post-vaccine CD8 samples was required for assigning a TCRβ match. In the reference library, TCRβ clonotypes with frequencies above 0.1% (>100-fold sequencing depth) were set as a threshold for identification of neoantigen-specific TCRβ CDR3 sequences within pre- and post-vaccine CD8+ T cell populations.
Reference T cell receptor-β (TCRβ) complementarity-determining region 3 (CDR3) sequence libraries (shown schematically in FIG. 42, Tables 7-11) were generated from short-term expanded sorted neoantigen-specific T cells (97-99% dextramer-positive), in Tables 7-11, TCRBV, TCRBD and TCRBJ are shown according to consensus nomenclature and CDR3 sequence for each clonotype indicated. Read counts indicates the number of times a given CDR3 sequence was found in the short term ex-vivo expanded neoantigen population. TCRβ clonotypes with frequencies above 0.1% (>100-fold sequencing depth), in reference library, were set as a threshold for identification of neoantigenspecific TCRβ CDR3 sequences within CD8+ T cell populations isolated from PBMC obtained pre- and post-vaccination. […] Frequencies are shown as percent of total reads. […]

With IILVAVPHV the “TCRβ clonotypes, post-vaccine” value (CD8+ T cells from PBMC after vaccination) was 12 clonotypes, the “TCRβ clonotypes, pre-vaccine” value (CD8+ T cells from PBMC before vaccination) was 2 clonotypes and the TCRβ families represented (post-vaccine clonotypes) was 8 TCRβ families.

Reference: patent US20170202939A1, “PERSONALIZED CANCER VACCINES AND METHODS THEREFOR” (Washington University, priority 2014, published 2017)
